IC50, AC50 and EC50 data for 4 compounds are collected here from ChEMBL document CHEMBL1201862, “PubChem BioAssay data set” (2004).

Calls of active or inactive are those of the source. Some results are limits rather than exact numbers.

As a reminder, the IC50 is the point on the concentration scale where inhibition reaches its midpoint. Broadly, the AC50 is the concentration at which the activity in the assay is half-maximal. The EC50 is the concentration at which the effect is half-maximal.

The target in assay [1] is Signal transducer and activator of transcription 3 (Homo sapiens, UniProt P40763). The assay can be described thus: STAT3 blockade with qPCR and toxicity readouts – cell-based, STAT1 panel, cytotoxicity, late-stage follow-up, panel member STAT3 Inhibition (AID 2078).
Assay [2] concerns the target Signal transducer and activator of transcription 1-alpha/beta (Homo sapiens, UniProt P42224). Kind of assay: STAT3 blockade with qPCR and toxicity readouts – cell-based, STAT1 panel, cytotoxicity, late-stage follow-up, panel member STAT1 Inhibition (AID 2078). (In qPCR the cycle at which signal appears reflects the starting amount.)
The next assay relates to INS1. The assay can be described thus: INS-1E survival protection against cytokine death – cell-based, luminescence, retest, dose response (AID 449756).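 Also: cell death triggered by IL-1 beta plus TNF-alpha plus IFN-gamma mixture; protective hits raise ATP signal compared with cytokine alone wells.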 As to conditions: Rattus norvegicus. Format: functional.
Assay [3] can be described thus: luciferase reporter signal suppression in cells – H4 neuroglioma cells, luminescence, dose response (AID 1990). The format is functional, cell-based.
In another assay the target is Bcl-2-like protein 1 (Homo sapiens, UniProt Q07817). The assay can be described thus: blockers of BCLXL peptide binding – biochemical, fluorescence polarization, 1536-well, selectivity assay for MCL1 inhibitor project, dose response (AID 2218). (In fluorescence polarisation assays a small probe gives low polarisation when free and higher when bound to something large.)

For assay [4], the target named is T1, Dual specificity protein phosphatase 3 (Homo sapiens, UniProt P51452). The assay can be described thus: VHR1 phosphatase inhibitors, primary screen, biochemical, absorbance, uHTS (AID 1654).
Assay [5] can be described thus: alpha-synuclein stem-loop luciferase translation blockers – H4 neuroglioma cells, luminescence, confirmation (AID 1988). Format: functional, cell-based.
Assay [6] addresses T1, Dual specificity protein phosphatase 3. The assay can be described thus: VHR1 phosphatase inhibitors, biochemical (AID 1878).
For assay [7], the target named is T2, Tyrosine-protein phosphatase non-receptor type 7 (Homo sapiens, UniProt P35236).
T2 sequence (P35236 whole entry): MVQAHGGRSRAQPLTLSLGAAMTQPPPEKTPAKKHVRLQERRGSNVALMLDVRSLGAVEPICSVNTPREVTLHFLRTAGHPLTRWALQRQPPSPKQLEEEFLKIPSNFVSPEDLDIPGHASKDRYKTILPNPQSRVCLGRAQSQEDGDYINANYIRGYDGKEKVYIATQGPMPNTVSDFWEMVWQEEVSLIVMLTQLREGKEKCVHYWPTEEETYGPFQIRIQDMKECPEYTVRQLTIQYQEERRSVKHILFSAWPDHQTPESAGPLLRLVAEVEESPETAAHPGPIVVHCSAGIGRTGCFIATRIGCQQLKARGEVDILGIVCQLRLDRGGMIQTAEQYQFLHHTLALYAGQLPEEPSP
The format is functional.

Assay [8] concerns the target T3, Tyrosine-protein phosphatase non-receptor type 22 (Homo sapiens, UniProt Q9Y2R2).
T3 sequence (Q9Y2R2 whole entry): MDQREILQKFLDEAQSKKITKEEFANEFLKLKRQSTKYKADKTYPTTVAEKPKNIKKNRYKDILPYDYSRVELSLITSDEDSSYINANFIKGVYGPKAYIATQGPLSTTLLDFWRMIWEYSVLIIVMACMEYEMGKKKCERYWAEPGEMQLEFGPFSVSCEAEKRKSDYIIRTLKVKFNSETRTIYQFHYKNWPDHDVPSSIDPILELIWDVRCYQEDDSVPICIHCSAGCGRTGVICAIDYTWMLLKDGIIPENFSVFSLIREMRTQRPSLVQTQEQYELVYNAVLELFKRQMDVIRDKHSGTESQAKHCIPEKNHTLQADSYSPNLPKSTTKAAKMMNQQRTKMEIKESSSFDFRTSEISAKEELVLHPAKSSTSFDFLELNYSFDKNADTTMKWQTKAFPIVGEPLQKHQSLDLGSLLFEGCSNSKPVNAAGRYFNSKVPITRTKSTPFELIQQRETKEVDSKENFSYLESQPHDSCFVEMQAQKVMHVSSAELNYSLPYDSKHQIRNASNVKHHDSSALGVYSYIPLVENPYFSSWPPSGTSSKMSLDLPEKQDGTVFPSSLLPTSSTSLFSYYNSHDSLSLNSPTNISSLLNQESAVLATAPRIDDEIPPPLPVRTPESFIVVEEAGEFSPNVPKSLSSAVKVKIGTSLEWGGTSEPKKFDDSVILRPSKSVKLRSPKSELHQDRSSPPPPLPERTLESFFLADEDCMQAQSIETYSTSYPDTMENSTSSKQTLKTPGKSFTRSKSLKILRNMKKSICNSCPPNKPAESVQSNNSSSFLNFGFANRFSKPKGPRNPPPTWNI
The format is functional.

For assay [9], the target named is T4, Dual specificity protein phosphatase 6 (Rattus norvegicus, UniProt Q64346).
T4 sequence (Q64346 whole entry): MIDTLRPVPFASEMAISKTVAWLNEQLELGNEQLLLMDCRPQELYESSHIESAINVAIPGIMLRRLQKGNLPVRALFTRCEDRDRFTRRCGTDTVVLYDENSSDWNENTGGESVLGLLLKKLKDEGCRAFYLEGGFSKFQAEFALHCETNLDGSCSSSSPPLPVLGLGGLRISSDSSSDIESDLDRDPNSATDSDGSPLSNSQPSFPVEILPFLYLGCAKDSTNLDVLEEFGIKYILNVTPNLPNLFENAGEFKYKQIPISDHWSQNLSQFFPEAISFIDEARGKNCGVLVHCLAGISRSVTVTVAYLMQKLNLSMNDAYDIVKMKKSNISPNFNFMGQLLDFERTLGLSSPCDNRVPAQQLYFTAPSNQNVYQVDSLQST
Kind of assay: inhibition of rat DUSP6 enzyme activity – biochemical, in vitro, primary screen (AID 425).

The target of assay [10] is Induced myeloid leukemia cell differentiation protein Mcl-1 (Homo sapiens, UniProt Q07820). Kind of assay: blockers of MCL1 binding to BIM peptide – biochemical, fluorescence polarization, BIM-BH3 peptide, 1536-well, dose response (AID 2217).
The nature of assay [11]: Luminescence Cell-Based Dose Response HTS to Identify Inhibitors of 5'UTR Stem-Loop Driven Prion Protein mRNA Translation in H4 Neuroglioblastoma Cells. [Related pubchem assays: 1827 (Project Summary), 1813 (Primary HTS)]. The format is functional.
Assay [12] concerns the target T3, Tyrosine-protein phosphatase non-receptor type 22. The format is functional. The source holds these as a separate data set.
The target in assay [13] is T4, Dual specificity protein phosphatase 6. Format: functional.
Assay [14] has as its target T1, Dual specificity protein phosphatase 3. Kind of assay: SAR VHR1 Fluorescent Assay for In Vitro dose response studies. [Related pubchem assays (depositor defined):AID1654, AID1661, AID1878, AID1992, AID2004, AID2070, AID2085]. The format is functional.
The target in assay [15] is T2, Tyrosine-protein phosphatase non-receptor type 7. Kind of assay: redox-active compounds inhibiting HePTP phosphatase – biochemical, fluorescence, mechanism study (AID 2068). The format is functional.
Assay [16] has as its target T1, Dual specificity protein phosphatase 3. Kind of assay: SAR VHR1 absorbance Assay for In Vitro dose response studies. [Related pubchem assays (depositor defined):AID1654, AID1661, AID1878, AID1992, AID2004].
The target in assay [17] is T3, Tyrosine-protein phosphatase non-receptor type 22. The assay can be described thus: SAR LYP1 Fluorescent Assay using OMFP substrate for In Vitro dose response studies - Set 3. [Related pubchem assays (depositor defined):AID1779, AID1784, AID2140, AID2686]. The format is functional.
For assay [18] the target is unchanged. Kind of assay: inhibition of lymphoid tyrosine phosphatase LYP – biochemical, pCAP fluorogenic substrate, fluorescence, set 3, SAR follow-up (AID 449727). Format: functional.
In assay [19] the target is T2, Tyrosine-protein phosphatase non-receptor type 7. The assay can be described thus: inhibition of hematopoietic tyrosine phosphatase HePTP – biochemical, set 2, SAR follow-up (AID 449736). Format: functional.
The target in assay [20] is Tyrosine-protein phosphatase non-receptor type 12 (Homo sapiens, UniProt Q05209). The assay can be described thus: SAR Selectivity Analysis of small molecule inhibitors of PEST using pCAP in a fluorescence assay. [Related pubchem assays (depositor defined):AID1779, AID1784, AID2135]. Format: functional.
The target in assay [21] is T5, Interleukin-8 (Homo sapiens, UniProt P10145). Kind of assay: SAR analysis of Tumor necrosis factor alpha (TNF-alpha) induced IL-8 secretion in MCF-7/NOD1 cells - Set 2. [Related pubchem assays (depositor defined):AID1575, AID2250, AID2260]. The format is functional, cell-based.
Assay [22] addresses T6, Nucleotide-binding oligomerization domain-containing protein 2 (Homo sapiens, UniProt Q9HC29). The assay can be described thus: inhibition of MDP-driven NOD2 NF-kB reporter – cell-based, set 3, SAR follow-up (AID 2799). Format: functional.
Assay [23] concerns HEK293. The assay can be described thus: SAR analysis of compounds that are cytotoxic to HEK293 - Set 2. [Related pubchem assays (depositor defined):AID1575, AID1578, AID1849, AID2001, AID2333, AID2334, AID2335, AID2337, AID2800]. Format: functional, cell-based. The note with it: Homo sapiens.
The target of assay [24] is T6, Nucleotide-binding oligomerization domain-containing protein 2. Kind of assay: inhibition of NOD2 signaling – set 2, SAR follow-up (AID 2475). The format is functional.
The target in assay [25] is T7, Nucleotide-binding oligomerization domain-containing protein 1 (Homo sapiens, UniProt Q9Y239). Kind of assay: SAR analysis of compounds that inhibit NOD1 - Set 3. [Related pubchem assays (depositor defined):AID1566, AID1575, AID1578, AID1849, AID1852, AID2333, AID2335, AID2466]. Format: functional.
Assay [26] deals with T7, Nucleotide-binding oligomerization domain-containing protein 1. The assay can be described thus: SAR analysis of NF-kappaB dependent luciferase using DAP as an inducer - Set 2. [Related pubchem assays (depositor defined):AID1566, AID1575, AID1578, AID1579, AID1849, AID1852, AID2264]. The format is functional.
The test system of assay [27] is HEK293. The assay can be described thus: SAR analysis of compounds that are cytotoxic to HEK293 - Set 3. [Related pubchem assays (depositor defined):AID1575, AID1578, AID1848, AID1849, AID2001, AID2333, AID2334, AID2335, AID2337, AID2469]. The format is functional, cell-based. The note with it: Homo sapiens.
The target in the next assay is Tumor necrosis factor (Homo sapiens, UniProt P01375). Kind of assay: analog potency on TNFa NF-kB signaling – cell-based, set 3, SAR follow-up (AID 2801). The format is functional.
Assay [28] addresses T5, Interleukin-8. The assay can be described thus: SAR analysis of GM-Tri-DAP induced IL-8 secretion in MCF-7/NOD1 cells - Set 2. [Related pubchem assays (depositor defined):AID1575, AID1578, AID2333]. Format: functional, cell-based.

T1 sequence (P51452 whole entry): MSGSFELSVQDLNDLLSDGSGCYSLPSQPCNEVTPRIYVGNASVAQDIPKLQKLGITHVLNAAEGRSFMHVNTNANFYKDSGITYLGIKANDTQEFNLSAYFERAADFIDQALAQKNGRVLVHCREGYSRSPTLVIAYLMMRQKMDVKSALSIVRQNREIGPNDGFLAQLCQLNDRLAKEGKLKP
T6 sequence (Q9HC29 whole entry, the tested form may be a part): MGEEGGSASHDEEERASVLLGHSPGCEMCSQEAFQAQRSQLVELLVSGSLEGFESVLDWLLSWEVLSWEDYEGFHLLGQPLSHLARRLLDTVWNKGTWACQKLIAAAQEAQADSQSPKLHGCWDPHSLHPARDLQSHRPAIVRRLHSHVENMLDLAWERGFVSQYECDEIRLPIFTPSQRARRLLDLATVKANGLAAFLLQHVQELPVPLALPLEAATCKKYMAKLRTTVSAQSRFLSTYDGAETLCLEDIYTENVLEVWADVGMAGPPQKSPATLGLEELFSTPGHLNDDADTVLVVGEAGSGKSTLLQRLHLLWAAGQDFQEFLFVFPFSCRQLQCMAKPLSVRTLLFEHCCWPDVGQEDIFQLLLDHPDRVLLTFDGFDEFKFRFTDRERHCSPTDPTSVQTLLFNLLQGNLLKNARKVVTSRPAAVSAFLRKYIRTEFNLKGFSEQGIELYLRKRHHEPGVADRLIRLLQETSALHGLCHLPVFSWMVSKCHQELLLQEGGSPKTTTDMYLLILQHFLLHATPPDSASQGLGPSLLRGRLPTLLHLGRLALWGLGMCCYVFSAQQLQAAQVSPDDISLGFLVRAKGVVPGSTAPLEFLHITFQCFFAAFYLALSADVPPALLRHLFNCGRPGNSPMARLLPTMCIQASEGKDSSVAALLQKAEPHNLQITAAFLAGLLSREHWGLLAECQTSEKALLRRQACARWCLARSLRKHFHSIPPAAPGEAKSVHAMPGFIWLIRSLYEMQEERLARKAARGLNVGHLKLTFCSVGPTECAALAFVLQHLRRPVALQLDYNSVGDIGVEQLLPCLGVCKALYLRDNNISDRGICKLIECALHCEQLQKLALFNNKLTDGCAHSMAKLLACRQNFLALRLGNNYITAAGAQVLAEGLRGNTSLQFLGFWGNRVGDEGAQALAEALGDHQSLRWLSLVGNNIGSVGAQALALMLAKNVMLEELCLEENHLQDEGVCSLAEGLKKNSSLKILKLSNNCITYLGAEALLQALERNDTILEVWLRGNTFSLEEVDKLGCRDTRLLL
T5 sequence (P10145 whole entry, the tested form may be a part): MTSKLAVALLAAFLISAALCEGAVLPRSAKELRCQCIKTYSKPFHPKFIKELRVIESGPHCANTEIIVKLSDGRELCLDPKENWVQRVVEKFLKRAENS
T7 sequence (Q9Y239 whole entry, the tested form may be a part): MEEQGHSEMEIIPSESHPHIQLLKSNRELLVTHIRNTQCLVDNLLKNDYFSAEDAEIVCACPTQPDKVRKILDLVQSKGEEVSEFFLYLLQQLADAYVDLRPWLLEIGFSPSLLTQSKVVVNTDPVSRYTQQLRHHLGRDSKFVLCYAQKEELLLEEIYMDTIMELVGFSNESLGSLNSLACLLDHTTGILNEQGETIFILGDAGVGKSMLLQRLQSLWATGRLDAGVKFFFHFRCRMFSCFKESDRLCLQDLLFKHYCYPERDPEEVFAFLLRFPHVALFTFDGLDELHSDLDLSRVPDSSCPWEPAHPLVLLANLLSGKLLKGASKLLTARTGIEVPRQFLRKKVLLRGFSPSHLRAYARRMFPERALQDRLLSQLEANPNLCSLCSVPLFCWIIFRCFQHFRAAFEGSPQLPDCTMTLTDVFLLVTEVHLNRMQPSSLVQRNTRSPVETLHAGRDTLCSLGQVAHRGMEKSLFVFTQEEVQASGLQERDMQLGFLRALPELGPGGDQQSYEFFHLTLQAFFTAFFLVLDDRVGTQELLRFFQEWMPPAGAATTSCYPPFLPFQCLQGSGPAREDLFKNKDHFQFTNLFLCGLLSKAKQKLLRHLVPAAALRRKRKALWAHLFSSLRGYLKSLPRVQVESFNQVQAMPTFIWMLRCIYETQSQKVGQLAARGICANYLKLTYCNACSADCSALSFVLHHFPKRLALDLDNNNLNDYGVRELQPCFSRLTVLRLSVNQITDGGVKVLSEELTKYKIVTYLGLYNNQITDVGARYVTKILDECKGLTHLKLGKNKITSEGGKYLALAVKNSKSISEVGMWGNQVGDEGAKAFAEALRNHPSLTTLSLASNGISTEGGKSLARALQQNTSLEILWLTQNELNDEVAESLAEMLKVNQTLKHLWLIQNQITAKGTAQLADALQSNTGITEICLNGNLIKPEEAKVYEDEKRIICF
Chain of Tumor necrosis factor (P01375 whole entry): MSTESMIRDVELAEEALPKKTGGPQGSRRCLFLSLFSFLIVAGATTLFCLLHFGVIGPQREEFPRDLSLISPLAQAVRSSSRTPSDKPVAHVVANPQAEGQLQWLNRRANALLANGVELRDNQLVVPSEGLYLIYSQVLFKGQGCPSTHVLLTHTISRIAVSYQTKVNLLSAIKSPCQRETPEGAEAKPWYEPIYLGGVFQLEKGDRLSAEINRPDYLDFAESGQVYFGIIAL
Chain of Bcl-2-like protein 1 (Q07817 whole entry): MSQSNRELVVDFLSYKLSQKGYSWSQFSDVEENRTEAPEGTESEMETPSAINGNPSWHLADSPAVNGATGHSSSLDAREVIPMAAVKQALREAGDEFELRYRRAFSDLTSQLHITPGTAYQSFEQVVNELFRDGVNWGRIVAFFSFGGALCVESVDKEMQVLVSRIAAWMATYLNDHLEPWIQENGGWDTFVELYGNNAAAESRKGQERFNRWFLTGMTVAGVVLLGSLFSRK
Chain of Induced myeloid leukemia cell differentiation protein Mcl-1 (Q07820 whole entry): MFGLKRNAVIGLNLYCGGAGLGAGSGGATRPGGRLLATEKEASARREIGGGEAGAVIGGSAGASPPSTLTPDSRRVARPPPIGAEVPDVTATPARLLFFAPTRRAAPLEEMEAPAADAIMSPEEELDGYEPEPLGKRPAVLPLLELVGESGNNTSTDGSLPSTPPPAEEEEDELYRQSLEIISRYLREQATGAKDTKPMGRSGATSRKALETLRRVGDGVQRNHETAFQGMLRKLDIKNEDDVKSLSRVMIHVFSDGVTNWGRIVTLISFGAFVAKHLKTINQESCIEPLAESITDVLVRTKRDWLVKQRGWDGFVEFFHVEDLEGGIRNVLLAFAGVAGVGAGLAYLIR
Chain of Tyrosine-protein phosphatase non-receptor type 12 (Q05209 whole entry): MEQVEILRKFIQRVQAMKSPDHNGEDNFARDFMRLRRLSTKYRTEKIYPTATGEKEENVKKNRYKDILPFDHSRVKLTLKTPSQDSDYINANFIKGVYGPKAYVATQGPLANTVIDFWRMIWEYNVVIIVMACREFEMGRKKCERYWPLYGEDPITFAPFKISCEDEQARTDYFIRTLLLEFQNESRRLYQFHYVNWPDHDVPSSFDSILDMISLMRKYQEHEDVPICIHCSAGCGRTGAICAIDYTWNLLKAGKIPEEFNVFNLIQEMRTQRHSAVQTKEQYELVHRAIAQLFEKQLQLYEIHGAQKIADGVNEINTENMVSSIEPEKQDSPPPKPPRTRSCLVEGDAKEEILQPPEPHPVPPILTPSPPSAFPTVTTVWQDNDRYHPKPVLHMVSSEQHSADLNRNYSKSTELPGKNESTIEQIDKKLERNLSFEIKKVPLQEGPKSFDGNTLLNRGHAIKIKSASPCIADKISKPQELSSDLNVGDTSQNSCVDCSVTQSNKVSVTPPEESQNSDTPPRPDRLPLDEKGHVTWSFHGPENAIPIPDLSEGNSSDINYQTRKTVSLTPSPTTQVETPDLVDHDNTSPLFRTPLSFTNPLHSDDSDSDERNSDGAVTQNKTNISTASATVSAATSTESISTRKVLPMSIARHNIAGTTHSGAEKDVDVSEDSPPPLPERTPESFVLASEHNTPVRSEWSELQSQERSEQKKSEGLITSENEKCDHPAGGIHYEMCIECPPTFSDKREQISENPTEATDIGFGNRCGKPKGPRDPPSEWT
Chain of Signal transducer and activator of transcription 3 (P40763 whole entry): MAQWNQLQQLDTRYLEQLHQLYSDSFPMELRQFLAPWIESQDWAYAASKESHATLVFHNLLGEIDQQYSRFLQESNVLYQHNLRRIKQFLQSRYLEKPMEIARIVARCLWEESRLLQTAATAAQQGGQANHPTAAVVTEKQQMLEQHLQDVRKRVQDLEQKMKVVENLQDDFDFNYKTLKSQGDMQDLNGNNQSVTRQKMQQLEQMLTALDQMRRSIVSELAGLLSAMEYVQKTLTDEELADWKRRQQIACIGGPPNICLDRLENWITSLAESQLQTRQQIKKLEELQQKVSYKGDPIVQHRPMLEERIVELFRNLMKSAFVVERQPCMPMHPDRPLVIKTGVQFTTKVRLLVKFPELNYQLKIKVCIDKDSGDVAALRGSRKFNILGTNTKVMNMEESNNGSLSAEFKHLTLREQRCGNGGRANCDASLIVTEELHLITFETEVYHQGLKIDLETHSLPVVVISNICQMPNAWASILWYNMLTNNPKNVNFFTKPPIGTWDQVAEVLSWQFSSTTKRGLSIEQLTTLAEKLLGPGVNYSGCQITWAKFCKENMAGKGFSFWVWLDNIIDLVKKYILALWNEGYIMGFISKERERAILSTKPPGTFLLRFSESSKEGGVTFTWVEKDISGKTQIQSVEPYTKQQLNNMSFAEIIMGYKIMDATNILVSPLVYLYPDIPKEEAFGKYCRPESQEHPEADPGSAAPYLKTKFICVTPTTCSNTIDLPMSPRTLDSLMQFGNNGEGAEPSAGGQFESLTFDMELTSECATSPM

Take `OC(c1ccccc1)C1CCN(c2ncnc3sccc23)CC1` (stereo unspecified): the IC50 in [1] is 1.84 µM (active); in assay [2], > 55.7 µM (inactive).

Take `COc1cccc(/C=N/NC(=O)c2cc3cc([N+](=O)[O-])ccc3s2)c1O`: the AC50 with INS1 was 3.15 µM (active). Moreover, the EC50 is 7.1 µM (active) in [3], 7.86 µM (active) in assay [5] and 9.8 µM (active) in assay [11]. For the same compound, the IC50 on Bcl-2-like protein 1 was > 109 µM (not active); in assay [4] it was 25.2 µM (active); in assay [6] it was 5.31 µM (active); in assay [7], 14.9 µM (active); in [8], 13.1 µM (active); in assay [9], 116 µM (not active). Also, the IC50 was 2.02 µM (active) in assay [10] and 15.7 µM (active) in assay [12].

Turning to `O=C(O)COc1ccc2ccccc2c1`, the IC50 in [13] was > 99 µM (inactive); in assay [14] it was > 99 µM (inactive); in assay [15], 54.7 µM (active); in assay [16] it was > 100 µM (inactive); in assay [17] it was > 100 µM (inactive); in assay [18] it was > 100 µM (inactive). In addition, the IC50 in assay [19] and in assay [20] was > 100 µM (inactive) throughout.

On to `CC(C)Sc1nc2c(c(=O)[nH]c(=O)n2C)n1Cc1ccccc1`, for which the IC50 on Interleukin-8 [21] is > 25 µM (inactive); in [22], > 20 µM (inactive); with HEK293 [23], > 20 µM (inactive); in [24], 18.1 µM (active); in [25] it was 1.99 µM (active); in assay [26], 18.5 µM (active). The IC50 is > 20 µM (inactive) with HEK293 [27], > 20 µM (inactive) on Tumor necrosis factor and 3.31 µM (active) on Interleukin-8 [28].
